Source: US11154569B2, “Ruthenium μ-nitrido complexes and their use as calcium uptake inhibitors” (CORNELL UNIVERSITY, priority 2018, dated 2021)

Key:
[1] = target: T1, recombinant human MCU-NTD (residues 72-189) (Homo sapiens, UniProt Q8NE86); test: Interaction with recombinant MCU-NTD (NMR HSQC, SDS-PAGE); format: binding; conditions: for interaction with MCU-NTD in solution: cell-free, C-2 at 3-fold molar excess
T1 construct: recombinant human MCU-NTD (residues 72-189)
T1 sequence (Q8NE86 72-189): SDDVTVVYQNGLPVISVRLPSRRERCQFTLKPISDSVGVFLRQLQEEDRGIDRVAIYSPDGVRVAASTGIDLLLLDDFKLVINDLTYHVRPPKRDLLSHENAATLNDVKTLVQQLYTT
Text: To further elucidate the potential interaction of C-2 with the MCU-NTD, the interaction between C-2 and the uniformly ^15N-labeled recombinant human MCU-NTD (residues 72-189) was investigated using solution nuclear magnetic resonance (NMR) spectroscopy.
To determine if the MCU-NTD remained intact upon treatment with C-2, the insoluble aggregate (Insol.+C-2) was resuspended in loading dye and the migration of the protein was compared to untreated soluble MCU-NTD (Sol.) by SDIS-PAGE analysis. […] The appearance of the trimer and higher order aggregates upon treatment with C-2 may indicate that the MCU-NTD conformation induced by C-2 is different from that of the native conformation. Similar MCU-NTD aggregation was observed when the MCU-NTD was treated with lower molar ratios (i.e. 1:2 and 1:1) of C-2.
The clustering of these perturbations could be a result of i) direct binding with the compound, ii) indirect effects of the lower soluble protein concentration shifting the self-association equilibrium, or iii) C-2-mediated modifications to the protein. […] Thus, the NTD may be a potent target for MCU inhibition that is only accessible to C-2 because of its enhanced membrane permeability when compared to Ru360.

human MCU S259A mutant = target: T2, human MCU S259A mutant (Homo sapiens, UniProt Q8NE86, S259A); test: mCa2+ uptake in permeabilized HEK293T cells expressing MCU S259A mutant; format: cell-based; conditions: C-2 10 nM, Ru360 500 nM
T2 construct: stably expressing flag-tagged full-length human wild type MCU (MCU^WT) or the mutant S259A (MCU^S259A); Flag; expressed in transfected cells
T2 sequence (Q8NE86 51-351 S259A): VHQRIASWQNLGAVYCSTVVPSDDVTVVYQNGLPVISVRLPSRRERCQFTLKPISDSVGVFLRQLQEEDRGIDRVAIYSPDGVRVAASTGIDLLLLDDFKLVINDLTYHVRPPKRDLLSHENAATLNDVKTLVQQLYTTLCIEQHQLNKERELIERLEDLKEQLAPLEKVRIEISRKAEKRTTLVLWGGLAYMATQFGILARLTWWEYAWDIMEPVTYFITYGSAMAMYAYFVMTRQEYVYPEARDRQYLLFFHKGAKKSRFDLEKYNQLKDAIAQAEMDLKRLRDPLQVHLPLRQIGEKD
T2 sequence (Q9H4I9 48-107 partner limits assumed): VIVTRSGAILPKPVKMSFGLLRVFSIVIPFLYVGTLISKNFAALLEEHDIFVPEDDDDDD
Experimental: (§1) An equal number of IHEK293T (6×10^6 cells) were washed in Ca^2+ free PBS, pH 7.4, resuspended and permeabilized with 40 μg/ml digitonin in 1.5 ml of intracellular medium (ICM) composed of 120 mM KCl, 10 mM NaCl, 1 mM K—H2PO4, 20 mM HE PES-Tris, pH 7.2 and 2 μM thapsigargin to block the SERCA pump. All measurements were performed in the presence of 2 mM succinate. The permeabilized cells were loaded with JC-1 (800 nM) and Fura2-FF (0.5 μM), respectively. Fluorescence was monitored in a multi-wavelength excitation dual-wavelength emission fluorimeter. [Ca^2+]out is represented as the excitation ratio (340 nm/380 nm) of Fura2-FF/FA fluorescence and ΔΨm as the ratio of the fluorescence of J-aggregate (570 nm excitation/595 nm emission) and monomer (490 nm excitation/535 nm emission) forms of JC-1. A series of extra-mitochondrial Ca^2+ bolus (20 μM) was added and mitochondrial uncoupler, CCCP (2 jμM), were added at the indicated time points. All of the experiments were performed at 37° C. with constant stirring.
Having observed the high potency of C-2 compared to Ru360, the mechanism of action of C-2 was next investigated. […] HIEK293T cells stably expressing flag-tagged full-length human wild type MCU (MCU^WT) or the mutant S259A (MCU^S259A) were permeabilized and mCa^2+ uptake was measured as above.

mCa2+ efflux channels = test: Mitochondrial Ca2+ efflux in permeabilized HEK293T cells; format: cell-based, human; conditions: for effect on mCa2+ efflux: 1 μM added after 20 μM Ca2+ pulse
Experimental: as §1
FIG. 4D is a graph showing assessment of mitochondrial Ca^2+ influx and efflux rates. Permeabilized HEK293T cells were pulsed with 20 μM Ca^2+ at 350 s to measure mitochondrial Ca^2+ uptake, followed by the addition of the 1 μM C-2 or Ru360 at 550 s, 10 μM CGP37157 at 600 s, and 6 μM CCCP at 750 s. In FIG. 4D, a representative trace depicts the comparison of C-2 and Ru360. FIG. 4E is a bar chart showing quantitation of Ca^2+ influx rate. FIG. 4F is a bar chart showing quantification of Ca^2+ efflux rate after addition of C-2 or Ru360. FIG. 4G is a bar chart showing quantification of CCCP-induced release of accumulated mitochondrial Ca^2+. […] To further confirm the selectivity of C-2 for the MCU, mCa^2+ uptake, mCa^2+ efflux rates and matrix Ca^2+ levels were measured in permeabilized HEK293T cells before and after treatment with C-2 using the fluorescent Ca^2+ indicator Fura-2-FF. […] Ru360 or C-2 were next added to inhibit MCU-mediated Ca^2+ uptake and subsequently visualize [Ca^2+]m efflux (FIG. 4D).

Row | Compound | SDS-PAGE of protein precipitate formed with MCU-NTD ([1]; Coomassie blue staining) | interaction with MCU-NTD in solution [1] | effect of MCU S259A mutation on MCU inhibition compared to MCU WT cells (human MCU S259A mutant) | effect on mCa2+ efflux (mCa2+ efflux channels) | change in activity upon treatment with CGP-37157 and CCCP (mCa2+ efflux channels; 10 μM CGP37157, 6 μM CCCP)
1 | N.N.N.N.N.N.N.N.[Cl-].[Cl-].[N-3].[Ru+4].[Ru+4] [C-2, [Ru2(μ-N)(NH3)8Cl2]Cl3] | distinct and systematic laddering corresponding to the presence of monomer, dimer, trimer, tetramer, and higher aggregate formation | rapid formation of insoluble precipitate | almost no change in the inhibitory activity | do not affect mCa^2+ efflux channels | No change
2 | N.N.N.N.N.N.N.N.O=C[O-].O=C[O-].[O-2].[Ru+3].[Ru+4] [Ru360, reference compound] | – | interacts with the purified MCU-NTD in a cell-free system, giving rise to precipitation and systematic laddering | partial resistance to Ru360 inhibition | do not affect mCa^2+ efflux channels | –
